In assay [1] the target is T1, GPR183 (Homo sapiens, UniProt P32249). In kind it is cell-based. Also on record: hemagglutinin signal peptide (upstream of the FLAG tag) (N); expressed in transfected cells; host or cells: CHO-K1 (ATCC CCL-61), transient lipofection, modified pcDNA3 vector. The settings on record: for agonist activity in calcium mobilization screen: 10 μM compound. A general note: Calcium assays in cells follow changes in intracellular calcium, usually with a dye or a luminescent sensor.
T1 sequence (P32249 whole entry): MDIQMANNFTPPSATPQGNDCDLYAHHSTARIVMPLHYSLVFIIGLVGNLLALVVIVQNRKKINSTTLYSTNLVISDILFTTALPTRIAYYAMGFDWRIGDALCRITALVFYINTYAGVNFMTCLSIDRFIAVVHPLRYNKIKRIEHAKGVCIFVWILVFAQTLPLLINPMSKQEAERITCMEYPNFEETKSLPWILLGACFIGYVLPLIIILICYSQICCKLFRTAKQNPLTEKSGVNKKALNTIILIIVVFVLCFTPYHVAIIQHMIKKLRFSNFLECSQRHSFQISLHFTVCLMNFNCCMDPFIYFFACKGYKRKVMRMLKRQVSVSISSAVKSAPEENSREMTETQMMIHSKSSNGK

Assay [2] has as its target T1, GPR183. In words: cell-based.
Assay [3] concerns the target T1, GPR183. The assay can be described thus: BRET cAMP (CAMYEL biosensor) assay, antagonist mode (antagonist added 10 min prior to agonist). In kind it is cell-based. Also on record: hemagglutinin signal peptide (upstream of the FLAG tag) (N); expressed in transfected cells; host or cells: CHO-K1 (ATCC CCL-61), transient lipofection, modified pcDNA3 vector. On the technique in general: In BRET a luciferase serves as donor, and the signal depends on an acceptor being close.

Assay [4] concerns the target T1, GPR183. The settings on record: dose-response, BRET.
Setting [5] is: calcium assay dose-response, mean of 3 experiments in duplicates, read-out: EC50 (potency).
[6] abbreviates: EC50 (potency), Gαi coupling, BRET, three experiments.

Entries after “also recorded” stand apart in the source; their conditions may differ. Read-outs that look alike come from different tables or passages of the source.

For `C[C@H](CCCC(C)(C)O)[C@H]1CC[C@H]2[C@@H]3[C@H](O)C=C4C[C@@H](O)CC[C@]4(C)[C@H]3CC[C@]12C` [Compound 1, 7α,25‐dihydroxycholesterol, reference compound], the EC50 (as a rule, the concentration at which the effect is half-maximal) at GPR183 [1] came out at 17 nM; at GPR183 [2], 19 nM. In the case of `Cc1nn(C)c(C)c1/C=C/C(=O)N1CCN(C(=O)C2COc3ccccc3O2)CC1` (centres unmarked) [Compound 9], the EC50 at GPR183 [1] (setting [5]) was 634 nM. The same measure, in the same setting: as for `O=C(/C=C/c1cccs1)N1CCN(C(=O)c2cccc3ccccc23)CC1` [Compound 10], the figure is 86 nM; as for `O=C(/C=C/c1ccccc1Br)N1CCN(C(=O)Cc2ccc(F)cc2)CC1` [Compound 12], 107 nM; as for `O=C(CCC1CCCC1)N1CCN(C(=O)c2cc(=O)c3ccccc3o2)CC1` [Compound 13], 165 nM. With `O=C(COc1cccc2ccccc12)N1CCN(C(=O)c2ccccc2)CC1` [Compound 15], the values for the EC50 on GPR183 [1] (setting [5]) and on GPR183 [2] (setting [6]) were 209 nM and 660 nM, respectively.

On to `COc1cc(C(=O)N2CCN(C(=O)COc3ccc(Cl)cc3C)CC2)ccc1C` [Compound 16], for which the EC50 at GPR183 [1] (setting [5]) was 179 nM; on GPR183 [2] (setting [6]) it was 51 nM; on GPR183 [2] (pEC50±SE, Gαi coupling, BRET) it was 50.1 nM. For the compound `O=C(COc1ccc(F)cc1Br)N1CCN(C(=O)C2COc3ccccc3O2)CC1` (centres unmarked) [Compound 17], the EC50 at GPR183 [1] (setting [5]) worked out at 278 nM. `O=C(COc1ccc(F)cc1Cl)N1CCN(C(=O)c2cccs2)CC1` [Compound 18]: at GPR183 [1], the “agonist activity in calcium mobilization screen” value is reported as “active”. For the same compound, the EC50 on GPR183 [1] (setting [5]) worked out at 740 nM. In the case of `O=C(COc1ccc2c(c1)CCC2)N1CCN(C(=O)c2cccs2)CC1` [Compound 69], on GPR183 [1], the “agonist activity in calcium mobilization screen” value is “inactive”. As for `O=C(/C=C/c1ccccc1)N1CCN(C(=O)c2ccccc2)CC1` [Compound 88], at GPR183 [3] (10 μM (highest concentration tested), 10 nM of agonist 1 after preincubation, read-out: inhibition of G protein activity induced by 1), the inhibition – broadly, the drop in the measured response relative to a control, in per cent – at 10 µM was 79%.

On to `O=C(COc1ccccc1)N1CCN(C(=O)c2ccccc2)CC1` [Compound 90], for which the “antagonist properties (inhibition of G protein activity induced by 1)” value on GPR183 [3] (10 nM of agonist 1 after preincubation with compound) is on record as “did not inhibit”. At GPR183 [4], the “agonist activity (Gαi coupling)” value was “inactive”. As for `Cc1cc(Cl)ccc1OCC(=O)N1CCN(C(=O)c2ccccc2)CC1` [Compound 91], the EC50 was 64 nM at GPR183 [2] (setting [6]) and 63.1 nM at GPR183 [2] (pEC50±SE, Gαi coupling, BRET). Moreover, the “agonist activity (Gαi coupling)” value on GPR183 [4] was “partial agonist properties; also recorded: active”. As to `COc1cc(C(=O)N2CCN(C(=O)COc3cccc4ccccc34)CC2)ccc1C` [Compound 92], the midpoint of the response at GPR183 [2] (setting [6]), the EC50, lay at 757 nM. Further, the “agonist activity (Gαi coupling)” value at GPR183 [4] is on record as “partial agonist properties”.

These data come from PMC8518411, “Discovery of GPR183 Agonists Based on an Antagonist Scaffold” (Chemmedchem, 2021).
